Experimental data from patent US10849864B2, “Combinations and methods for the treatment and/or prevention of fungal infections” (Novan, Inc., priority 2015, dated 2020).
Where a name gives a salt, the structure may show the parent alone.

System: Tricophyton rubrum (ATCC #28188)
Test: MIC evaluation of individual test materials (Macrodilution Broth Method, Phase I)
Assay type: cell-based
Settings: Trichophyton rubrum, ATCC28188; test material alone; T. rubrum inoculum 1.775 × 10^3 CFU/mL per tube; read-out: Minimum Inhibitory Concentration (MIC) (as product concentration)
Description: The purpose of this study was to evaluate the synergistic in vitro interactions of one drug pair when challenged with Tricophyton rubrum (ATCC #28188).
A minimum inhibitory concentration (MIC) evaluation was performed for each test material versus T. rubrum using modifications of the Macrodilution Broth Method outlined in the CLSI (clinical laboratory standards institute) Document M07-A9: Methods for dilution antimicrobial susceptibility tests for bacteria that grow aerobically, 9th edition. The test materials were terbinafine hydrochloride and Nitricil™ NVN1, which is a NO-releasing diazeniumdiolate-functionalized co-condensed silica from Novan, Inc.
The challenge strain of T. rubrum was exposed to a series of doubling dilutions of each test material. […]
An initial population of T. rubrum was prepared containing approximately 10^3 CFU (colony forming units)/mL in appropriate fungal growth media (RPMI). This initial population density was precisely determined by preparing ten-fold dilutions and plating them on the appropriate solid fungal growth media for colony enumeration. […] Following incubation, the colonies were manually counted to determine the precise number of colonies present in the initial population. […]
The tubes were visually assessed on the basis of turbidity in order to determine fungal growth.

For `CN(C/C=C/C#CC(C)(C)C)Cc1cccc2ccccc12` [Terbinafine hydrochloride, terbinafine hydrochloride], the MIC was 0.012 µg/mL.
